COc1ccc(C(=O)O)cc1
solubility (mole fraction)
Details	283.15 K	288.15 K	293.15 K	298.15 K	303.15 K	308.15 K	313.15 K	318.15 K	323.15 K	328.15 K
in 2-butanone	0.0107	0.0128	0.0149	0.0169	0.0198	0.023	0.0266	0.0298	0.0343	0.0394
in THF	0.0483	0.0518	0.0562	0.0621	0.0671	0.0731	0.078	0.085	0.0923	0.0991
in acetone	0.0129	0.0153	0.0173	0.0197	0.0224	0.026	0.0298	0.032	0.0344	0.0368
in cyclohexanone	0.0187	0.0203	0.022	0.025	0.0292	0.034	0.0397	0.0449	0.0507	0.059
in ethyl formate	0.00442	0.00508	0.00606	0.00738	0.00889	0.0114	0.0135	0.0152	0.0178	0.0195
in ethylene glycol	0.0022	0.00292	0.0038	0.0046	0.00546	0.00649	0.00768	0.00885	0.0105	0.0126
in isobutanol	0.00435	0.00548	0.00691	0.00889	0.0116	0.0143	0.0178	0.0206	0.025	0.0288
in isopropyl acetate	0.00637	0.00732	0.00833	0.00955	0.0116	0.0135	0.0156	0.0179	0.021	0.0246
in n-butanol	0.00647	0.0077	0.00946	0.011	0.0133	0.0158	0.0186	0.0218	0.0255	0.0302
in n-butyl acetate	0.00629	0.00719	0.00867	0.0106	0.0118	0.0136	0.0158	0.0178	0.021	0.0244
in n-pentanol	0.00696	0.00853	0.0101	0.012	0.014	0.0169	0.0197	0.0234	0.0272	0.0313
in n-propyl acetate	0.00732	0.00802	0.0089	0.0103	0.0118	0.0136	0.0155	0.0182	0.0209	0.0237
in sec-butanol	0.00623	0.00789	0.0101	0.0121	0.0149	0.0182	0.0219	0.0274	0.0317	0.0362
in toluene	0.00062	0.00086	0.0012	0.00152	0.00196	0.00252	0.00301	0.00369	0.0044	0.0054
